Measurements taken from PubChem BioAssay (NCI).
Values joined by “and” are separate entries in the source; they are usually repeats but may differ in a detail not shown here. Identical values can stand only once.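 How tested: cells in 96-well plates exposed to compound for 48 hours at five concentrations. TGI marks complete inhibition of growth.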

What was measured:
Assay in all cases: NCI tumour cell line growth inhibition, 48 h
[1] = test system: SK-OV-3 ovarian
[2] = test system: HOP-92 NSCLC
[3] = test system: HCT-116 colon
[4] = test system: UO-31 renal
[5] = test system: RPMI-8226 leukemia
[6] = test system: HOP-62 NSCLC
[7] = test system: NCI-H522 lung
[8] = test system: UACC-62 melanoma
[9] = test system: SW-620 colon
[10] = test system: T-47D breast
[11] = test system: NCI/ADR-RES ovarian
[12] = test system: SF-268 CNS
[13] = test system: SNB-75 CNS
[14] = test system: SR leukemia
[15] = test system: CCRF-CEM leukemia
[16] = test system: U251 CNS
[17] = test system: COLO 205 colon
[18] = test system: EKVX NSCLC
[19] = test system: SK-MEL-2 melanoma
[20] = test system: UACC-257 melanoma

Compound	TGI [1] [µM]	TGI [2] [µM]	TGI [3]	TGI [4] [µM]	TGI [5]	TGI [6] [µM]	TGI [7] [µM]	TGI [8]	TGI [9]	TGI [10]	TGI [11] [µM]	TGI [12] [µM]	TGI [13] [µM]	TGI [14]	TGI [15] [µM]	TGI [16]	TGI [17] [µM]	TGI [18]	TGI [19]	TGI [20] [µM]
CC1(C)O[C@@H]2[C@@H](COC(=O)c3ccccc3)C[C@@H](C#N)[C@@H]2O1	> 100	> 100	> 100 µM	> 100	> 100 µM	> 100	> 100	> 100 µM	> 100 µM	> 100 µM	> 100	> 100	> 100	> 100 µM	> 100	> 100 µM	> 100	–	–	–
CC(=O)N1OC(C)CC1Nc1ccc(Br)cc1 (stereo not drawn)	> 100	> 100	> 100 µM	> 100	–	6.13	–	> 100 µM	> 100 µM	> 100 µM	> 100	> 100	–	> 100 µM	> 100	> 100 µM	–	> 100 µM	> 100 µM	–
CNC(=O)c1n[nH]nc1Sc1c([N+](=O)[O-])ncn1C	> 100	> 100	> 100 µM	> 100	–	> 100	> 100	> 100 µM	> 100 µM	> 100 µM	> 100	> 100	–	–	> 100	> 100 µM	> 100	> 100 µM	> 100 µM	> 100
Nc1nc(N)c(NC(=O)CCCO)c(=O)[nH]1	> 100	> 100	> 100 µM	> 100	> 100 µM	> 100	> 100	> 100 µM	> 100 µM	> 100 µM	> 100	> 100	> 100	–	> 100	> 100 µM	> 100	> 100 µM	> 100 µM	> 100
CC(=O)OCC(OC(C)=O)C(OC(C)=O)C(OC(C)=O)C(C=NN(C(C)=O)S(=O)(=O)c1ccc(/C=C2\NC(=O)N(C)C2=O)cc1)OC(C)=O (stereo not drawn)	> 100	–	47.2 µM and 37.4 µM	> 100	49.8 µM and 65.8 µM	> 100	72.9	23.3 µM and 29.5 µM	83.7 µM and 97.7 µM	76.1 µM and 91.3 µM	> 100	> 100	> 100	44.1 µM and 61 µM	41.6	66 µM and > 100 µM	> 100	78.5 µM and > 100 µM	58 µM and > 100 µM	> 100
c1ccc2c(c1)nc1n2CCCn2ccnc2-1	9.03	> 100	> 100 µM	> 100	> 100 µM	> 100	> 100	> 100 µM	> 100 µM	> 100 µM	> 100	> 100	> 100	> 100 µM	–	> 100 µM	> 100	> 100 µM	> 100 µM	–
O=C1c2ccccc2NC(=O)C2C1C(c1ccccc1)CC2(O)c1ccccc1 (stereo not drawn)	> 100	67	37.8 µM	–	–	> 100	–	> 100 µM	> 100 µM	> 100 µM	> 100	> 100	0.0677	> 100 µM	> 100	–	36.9	> 100 µM	> 100 µM	> 100
COC(=O)C1(c2cc3ccccc3n2S(=O)(=O)c2ccccc2)CC2C=CC1NC2 (stereo not drawn)	13.2	4.12	6.16 µM	2.86	2.74 µM	3.92	–	3.31 µM	> 21.7 µM	13.5 µM	6.95	> 20.2	17.9	0.427 µM	–	2.75 µM	4.61	15.1 µM	3.63 µM	4.93
C=C(C)C1Cc2c(cc(O)c3c(=O)c4c(oc23)C(O)Oc2cc(OC)c(OC)cc2-4)O1 (stereo not drawn)	–	> 10	> 10 µM	> 10	> 10 µM	> 10	–	> 10 µM	> 10 µM	> 10 µM	> 10	> 10	–	> 10 µM	> 10	> 10 µM	> 10	> 10 µM	–	> 10
COC(=O)c1ccccc1C1CN=NC12Cc1ccc(C)c(C)c1C2=O (stereo not drawn)	> 100	> 100	> 100 µM	> 100	–	> 100	> 100	> 100 µM	> 100 µM	> 100 µM	> 100	> 100	> 100	–	> 100	> 100 µM	> 100	> 100 µM	> 100 µM	> 100
